Measurements taken from PMC10604323, “Cannabidiol Modulates M-Type K^+ and Hyperpolarization-Activated Cation Currents” (Biomedicines, 2023).

Columns and labels:
[1] = test system: T1, hyperpolarization-activated cation current (Ih) of GH3 cells; HCN2, HCN3, and a combination of HCN2 and HCN3; assay: whole-cell patch clamp; assay type: cell-based; settings: Ca2+-free Tyrode's solution with 0.5 mM CdCl2 and 1 μM TTX, 2 s step from -40 to -110 mV, pH 7.4, 20-25 °C, native current
T1 construct: native channels in GH3 cells; subunit composition not determined

[2] = test system: T2, M-type K+ current (IK(M)) of GH3 cells; KV7.2, KV7.3 and KV7.5 channels; assay: whole-cell patch clamp; assay type: cell-based; settings: high-K+ Ca2+-free solution with 1 μM TTX, 1 s step from -50 to -10 mV, pH 7.4, 20-25 °C, native current
T2 construct: gene Kcnq2; native channels in GH3 cells; subunit composition not determined
Text: whole-cell patch clamp on M-type K+ current (IK(M)) of GH3 cells; KV7.2, KV7.3 and KV7.5 channels | concentration–response curve for the CBD-induced inhibition of the density of IK(M)

`C=C(C)[C@@H]1CCC(C)=C[C@H]1c1c(O)cc(CCCCC)cc1O` [Cannabidiol, 2-[(1R,6R)-3-methyl-6-(prop-1-en-2-yl)cyclohex-2-en-1-yl]-5-pentylbenzene-1,3-diol] showed an IC50 [1] of 3.3 µM and an IC50 [2] of 3.6 µM.
